According to ChEMBL document CHEMBL1135450, “Discovery of phenyl alanine derived ketoamides carrying benzoyl residues as novel calpain inhibitors” (Bioorg Med Chem Lett, 2002):
Where a SMILES comes first, the peptide text is derived from it. [ ]: non-standard residue; d: D form. The star is where a group is joined. ξ: configuration not given here. ξF = NC(Cc1ccccc1)C(=O)O; Cbz = O=C(OCc1ccccc1)*

tested on: not listed separately; test: Inhibition of calpain-mediated p60 c-Src degradation in human thrombocytes; assay type: functional, cell-based

Row | Compound | IC50
1 | CC(C)[C@H](NC(=O)OCc1ccccc1)C(=O)NC(C=O)Cc1ccccc1 (stereo partly drawn) (Cbz-Val-[ξF]-aldehyde) | 700 nM
2 | NC(=O)C(=O)C(Cc1ccccc1)NC(=O)c1ccccc1/C=C/c1ccc2ccccc2c1 (stereo not given) | 1400 nM

biological target: Cathepsin B (Homo sapiens, UniProt P07858); test: Inhibition of cathepsin B

Row | Compound | Ki
3 | NC(=O)C(=O)C(Cc1ccccc1)NC(=O)c1ccccc1/C=C/c1ccc2ccccc2c1 (stereo not given) | 99 nM

biological target: Procathepsin L (Homo sapiens, UniProt P07711); test: The compound was evaluated for inhibition of cathepsin L
Sequence (P07711 whole entry): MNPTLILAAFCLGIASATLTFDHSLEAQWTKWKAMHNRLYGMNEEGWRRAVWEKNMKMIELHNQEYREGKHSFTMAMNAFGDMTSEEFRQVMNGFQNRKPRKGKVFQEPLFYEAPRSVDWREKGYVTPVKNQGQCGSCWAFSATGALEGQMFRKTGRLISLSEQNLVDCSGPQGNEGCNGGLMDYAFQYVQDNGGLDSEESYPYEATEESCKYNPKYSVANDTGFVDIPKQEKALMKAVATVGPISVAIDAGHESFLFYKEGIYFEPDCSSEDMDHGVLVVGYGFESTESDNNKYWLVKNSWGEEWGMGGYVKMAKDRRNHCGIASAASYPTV

Row | Compound | Ki
4 | NC(=O)C(=O)C(Cc1ccccc1)NC(=O)c1ccccc1/C=C/c1ccc2ccccc2c1 (stereo not given) | 6100 nM

biological target: T1, Calpain-1 catalytic subunit (Homo sapiens, UniProt P07384); test: Inhibition of calpain, using human mu-calpain isolated from erythrocytes and Suc-Leu-Tyr-AMC as the fluorogenic substrate; assay type: cell-free
T1 sequence (P07384 whole entry): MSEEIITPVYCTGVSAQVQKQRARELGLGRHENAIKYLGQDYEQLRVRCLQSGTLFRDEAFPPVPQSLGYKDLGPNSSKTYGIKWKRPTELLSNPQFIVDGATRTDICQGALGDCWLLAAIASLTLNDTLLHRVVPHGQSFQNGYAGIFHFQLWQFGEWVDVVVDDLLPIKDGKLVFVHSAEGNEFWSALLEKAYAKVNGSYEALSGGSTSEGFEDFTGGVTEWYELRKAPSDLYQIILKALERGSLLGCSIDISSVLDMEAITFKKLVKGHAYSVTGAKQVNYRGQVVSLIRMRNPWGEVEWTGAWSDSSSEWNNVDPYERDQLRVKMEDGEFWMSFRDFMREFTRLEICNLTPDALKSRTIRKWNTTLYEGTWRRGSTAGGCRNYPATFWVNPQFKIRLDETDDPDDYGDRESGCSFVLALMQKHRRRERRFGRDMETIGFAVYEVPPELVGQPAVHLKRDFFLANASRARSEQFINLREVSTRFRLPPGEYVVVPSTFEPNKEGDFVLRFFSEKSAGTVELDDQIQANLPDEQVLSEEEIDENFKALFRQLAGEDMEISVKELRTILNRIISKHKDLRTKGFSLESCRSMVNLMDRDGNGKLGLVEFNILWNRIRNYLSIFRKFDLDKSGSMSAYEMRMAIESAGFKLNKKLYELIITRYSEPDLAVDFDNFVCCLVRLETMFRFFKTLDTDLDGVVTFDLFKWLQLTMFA

Row | Compound | Ki
5 | O=CC(Cc1ccccc1)NC(=O)c1ccccc1C#Cc1ccccc1 (stereo not given) | 450 nM
6 | O=CC(Cc1ccccc1)NC(=O)c1ccccc1/C=C/c1ccc2ccccc2c1 (stereo not given) | 15 nM
7 | O=CC(Cc1ccccc1)NC(=O)c1ccccc1OCc1ccc2ccccc2c1 (stereo not given) | 50 nM
8 | O=CC(Cc1ccccc1)NC(=O)c1ccccc1-c1ccccc1 (stereo not given) | 90 nM
9 | O=CC(Cc1ccccc1)NC(=O)c1ccccc1CCc1ccccc1 (stereo not given) | 280 nM
10 | O=CC(Cc1ccccc1)NC(=O)c1ccccc1Cc1ccc2ccccc2c1 (stereo not given) | 200 nM
11 | O=CC(Cc1ccccc1)NC(=O)c1ccccc1C(=O)c1ccccc1 (stereo not given) | 230 nM
12 | COc1ccc(/C=C/c2ccccc2C(=O)NC(C=O)Cc2ccccc2)cc1OC (stereo not given) | 40 nM
13 | O=CC(Cc1ccccc1)NC(=O)c1ccccc1Cc1ccccc1 (stereo not given) | 370 nM
14 | O=CC(Cc1ccccc1)NC(=O)c1ccccc1COc1ccccc1 (stereo not given) | 450 nM
15 | O=CC(Cc1ccccc1)NC(=O)c1ccccc1 (stereo not given) | 1080 nM
16 | COc1ccc(/C=C/c2ccccc2C(=O)NC(Cc2ccccc2)C(=O)C(N)=O)cc1OC (stereo not given) | 80 nM
17 | O=CC(Cc1ccccc1)NC(=O)c1ccccc1Oc1ccccc1 (stereo not given) | 50 nM
18 | NC(=O)C(=O)C(Cc1ccccc1)NC(=O)c1ccccc1/C=C/c1ccc2ccccc2c1 (stereo not given) | 6 nM
19 | O=CC(Cc1ccccc1)NC(=O)c1ccccc1/C=C/c1ccccc1 (stereo not given) | 140 nM
20 | NC(=O)C(=O)C(Cc1ccccc1)NC(=O)c1ccccc1-c1ccccc1 (stereo not given) | 40 nM
